Values of other authors as cited in patent US20240148037A1, “STEVIOL GLYCOSIDE FORMULATIONS FOR FOOD AND BEVERAGES” (SWEEGEN, INC., priority 2019, published 2024).

Details: relative to sucrose

Compound | times sweeter than sucrose
Rebaudioside C | 40-60 times
C=C1C[C@@]23CC[C@H]4[C@@](C)(CCC[C@@]4(C)C(=O)O[C@@H]4O[C@H](CO)[C@@H](O)[C@H](O)[C@H]4O)[C@@H]2CC[C@]1(O[C@@H]1O[C@H](CO)[C@@H](O)[C@H](O)[C@H]1O[C@@H]1O[C@H](CO)[C@@H](O)[C@H](O)[C@H]1O)C3 [stevioside] | 100-150 times
C=C1C[C@@]23CC[C@H]4[C@@](C)(CCC[C@@]4(C)C(=O)O[C@@H]4O[C@H](CO)[C@@H](O)[C@H](O)[C@H]4O)[C@@H]2CC[C@]1(O[C@@H]1O[C@H](CO)[C@@H](O)[C@H](O)[C@H]1O[C@@H]1O[C@@H](C)[C@H](O)[C@@H](O)[C@H]1O)C3 [Dulcoside A] | about 30 times
